This is an account of results in patent US6949516B2, “Dipeptide apoptosis inhibitors and the use thereof” (Cytovia, Inc., priority 1997, dated 2005).

The target in one experiment is T1, ICE (Homo sapiens, UniProt P29466).
T1 construct: made in house; host or cells: Sf9 insect cells, baculovirus vector
T1 sequence (P29466 120-297 limits assumed): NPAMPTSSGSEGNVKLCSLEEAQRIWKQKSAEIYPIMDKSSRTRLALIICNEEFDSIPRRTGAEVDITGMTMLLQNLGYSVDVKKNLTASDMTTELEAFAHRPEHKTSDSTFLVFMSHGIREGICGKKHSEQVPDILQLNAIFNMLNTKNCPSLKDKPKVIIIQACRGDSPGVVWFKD
Put plainly: Fluorometric enzyme assay, ICE. As to conditions: recombinant ICE. The format is biochemical. The method, then: (§1) The activities of Cbz-Val-Asp(OMe)-CH2F and Cbz-Val-Asp-CH2F (free acid) as inhibitors of CPP32, ICE and cathepsin B were measured in a fluorometric enzyme assay. Recombinant CPP32 protein and ICE protein were prepared by expressing DNA clones encoding these enzymes in an insect host cell (sf9 cells) using baculovirus as the vector. See, Webb, N.R. et al., “Expression of proteins using recombinant Baculovirus,” Techniques 2:173-188 (1990). Preparations of native cathepsin were acquired from a commercial source. Enzyme activity was measured using synthetic peptide substrates attached to a fluorogenic leaving group. Cleavage of the synthetic substrate by the enzyme results in a fluorescent signal which is read in a spectrofluorometer or in a fluorometric microtiter plate reader.

In the next experiment the target is T2, Cathepsin B (Homo sapiens, UniProt P07858).
T2 construct: Preparations of native cathepsin were acquired from a commercial source; purchased
Put plainly: Fluorometric enzyme assay, cathepsin B. It is filed as biochemical. As to conditions: native cathepsin, commercial source. The method, then:
as §1

In a further experiment the test system is Factor Xa. The experiment in a line: Protease inhibition, Factor Xa. The format is biochemical. The source says:
(§2) Table I lists the IC50 of Cbz-Val-Asp(OMe)-CH2F and Cbz-Val-Asp-CH2F (free acid) for CPP32 and other proteases.

Another experiment has as its target Thrombin (Homo sapiens, UniProt P00734). The experiment in a line: Protease inhibition, thrombin. It is filed as biochemical.
Description: as §2

Another experiment deals with T3, CPP32 (Homo sapiens, UniProt P42574).
T3 construct: made in house; host or cells: Sf9 insect cells, baculovirus vector
T3 sequence (P42574 29-175 limits assumed): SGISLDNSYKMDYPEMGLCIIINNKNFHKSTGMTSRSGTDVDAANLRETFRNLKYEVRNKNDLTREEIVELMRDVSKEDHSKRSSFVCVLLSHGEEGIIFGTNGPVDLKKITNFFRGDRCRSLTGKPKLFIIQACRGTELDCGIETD
Put plainly: Fluorometric enzyme assay, CPP32. As to conditions: recombinant CPP32, 37° C., 30 minutes. The format is biochemical. The method, then:
as §1
CPP32 activity was measured using the following buffer conditions: 100 mM HEPES pH 7.5, with 10% sucrose, 1% CHAPS, 5 mM glutathione, and 5 μM peptide substrate. The peptide substrate consisted of an oligomer with the sequence Asp-Glu-Val-Asp (SEQ ID NO:1) with the fluorogenic compound aminomethylcoumarin conjugated to the C-terminus. The assay for enzyme activity was typically carried out at 37° C. for 30 minutes.

The subject of another experiment is HeLa cells. The experiment in a line: Effect of Z-VD-fmk on TNF-α-induced cell death in HeLa cells (calcein AM, Example 25). As to conditions: TNF-α 25 ng/mL + CHX 30 μg/mL, zero to 500 nM tested. The format is cell-based. The method, then: Tumor necrosis factor alpha (TNF-α) can trigger apoptosis in a number of cell types by initiating the caspase cascade and its apoptosis inducing activity can be inhibited by peptide-based caspase inhibitors. However, high concentrations of the inhibitors (50 μM or greater) is required to have good anti-apoptotic effect. HeLa cells, a cell line commonly employed in TNF-α cell death studies, was used here to determine the anti-apoptotic potency of Z-VD-fmk.
HeLa cells were seeded in 48-well multidishes at a density of 50,000 cells per well 24 hours before treatment. They were then pre-incubated with varying concentrations of Z-VD-fmk for 2 hours and challenged with TNF-α (25 ng/mL) and cycloheximide (CHX; 30 μg/mL). The cultures were incubated for an additional 24 hours and dead cells were removed by two washes with PBS. The density of surviving cells was then measured by incubating each culture for 45 minutes with calcein AM, a profluorescent dye which is taken up by living cells and converted to a fluorescent product. The resulting data were expressed as % control values (control values were cells incubated with cycloheximide but without TNF-α).
Z-VD-fmk provided good cytoprotection at concentrations approaching 100 nM.

With `COC(=O)CC(NC(=O)C(NC(=O)OCc1ccccc1)C(C)C)C(=O)CF` (stereo not drawn) [Cbz-Val-Asp(OMe)-CH2F, Z-Val-Asp-fmk Methyl Ester], the concentration for half-maximal inhibition (IC50) was 900 nM at ICE; 300 nM against Cathepsin B; above 100 µM in the experiment with Factor Xa; above 100 µM at Thrombin; 1100 nM on CPP32.
In the case of `CC(C)[C@H](NC(=O)OCc1ccccc1)C(=O)NC(CC(=O)O)C(=O)CF` (stereo partly drawn) [Cbz-Val-Asp-CH2F, Z-Val-Asp-fmk], the IC50 on ICE was 20 nM; at Cathepsin B, above 10000 nM; in the experiment with Factor Xa it was above 100 µM; on Thrombin, above 100 µM; on CPP32, 43 nM. The “concentration providing good cytoprotection against TNF-α-induced cell death” value in the experiment with HeLa cells is on record as around 100 nM.

What is called IC50 is the point on the concentration scale where inhibition reaches its midpoint.
